According to PMC7248098, “Biochemical characterization and inhibition of the alternative oxidase enzyme from the fungal phytopathogen Moniliophthora perniciosa” (Communications Biology, 2020):
pEC50: −log10 of the molar value. Several values for one entry are separate records, joined by “and”; a condition that tells them apart may be missing. Equal entries are not always repeated.

Columns and labels:
membrane-bound rMpAOX = membrane-bound rMpAOX (Moniliophthora perniciosa, UniProt A8QJP8); assay: Membrane-bound rMpAOX activity with putative activators (O2 uptake, oxygraph; dose-response); assay type: biochemical;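 on Fractional velocity, %: 100% is the maximal rate reached in the activator titration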
Description: E. coli membrane preparation was performed as described with minor modifications. […] The cells were disrupted using two passes at […] through a pre-cooled Constant cell disruption system (Constant Systems Ltd). The lysate was centrifuged for 15 min at 16,000 rcf, and the pelleted unbroken cells and large cell debris were discarded. The supernatant was centrifuged for 90 min at 200,000 rcf to collect the fragmented membranes.
(§1) Respiration rates were recorded before and after the addition of putative AOX activators, such as 5′-ADP, 5′-AMP, 5′-GDP, 5′-GMP, glyoxylate, oxaloacetate, pyruvate or succinate (1 mM each unless stated otherwise). […] Data were acquired with the Multiskan FC Microplate Photometer (ThermoFisher). […] Absorbance readings were taken periodically and a blank reactions (substrate without enzyme) were included in every assay and were used to determine and subtract the autoxidation rate (background). Proteoliposomes were assayed as described for the E. coli membrane fraction except that no KCN was included and 0.5 µL of the prep (~50 ng rMpAOX) were added into the reaction. When tested, inhibitors were preincubated with the enzyme in reaction buffer for 2–5 min before starting the reaction by the addition of substrate. The path length (i.e., the height of the reaction medium inside the well) was calculated based on the reaction volume and the well cross-section area informed by the supplier. GraphPad Prism 7.0 (GraphPad Software Inc.) was used for function fitting.

purified rMpAOX = purified rMpAOX (Moniliophthora perniciosa, UniProt A8QJP8); assay: Purified (detergent-solubilised) rMpAOX, Q1H2 oxidation; assay type: biochemical; details: GMP up to 0.5 mM, purified rMpAOX
Description: The E. coli membrane fraction was resuspended with 50 mM Tris-HCl pH 7.5, 20% glycerol, 200 mM MgSO4 and 1% Fos-Choline-12 (FC-12) instead of MOPS buffer. The sample was left under gentle rocking for 1 h at 4 °C, after which it was centrifuged at 200,000 rcf for 30 min. […] T. Elthon, Nebraska, USA. Protein content was estimated through the Bradford method[63] and bovine serum albumin as standard.
as §1

[1] = target: rMpAOX incorporated into proteoliposomes (Moniliophthora perniciosa, UniProt A8QJP8); assay: rMpAOX incorporated into proteoliposomes with Q10 and NDH-2 (NADH oxidation); assay type: biochemical; details: PL system
Description: Proteoliposomes (PL) were prepared as previously described[44],[45], except that NDH-2 was used instead of complex I and 0.5% DDM was used instead of OG. […] For kinetic studies, PLs were prepared with 50 µg rMpAOX and no NDH-2—in this case, pure NDH-2 was added directly into the enzymatic reaction mixture at a saturating concentration. Briefly, lipids and Q10 stocks in chloroform were mixed in a glass vial and the chloroform dried under a nitrogen stream. The lipids were hydrated and extruded through a 100 nm NanoSizer MINI Liposome Extruder (T&T Scientific) followed by the addition of protein. After treatment with the Bio-Beads SM-2 Resin (Bio-Rad), proteolipososmes were harvested by ultracentrifugation and resuspended in 150 µL of buffer. Enzymatic assays were performed on the same day.
as §1

[2] = test system: WBD (witches' broom disease of cocoa, M. perniciosa); set-up: method as in PMID 30350447; details: 200 µM, in the absence of a main respiration inhibitor; cited from earlier work
M. perniciosa = test system: M. perniciosa; set-up: method as in PMID 22443281, PMID 30350447; details: cited from earlier work

Sequence of membrane-bound rMpAOX (A8QJP8 entry or part of it): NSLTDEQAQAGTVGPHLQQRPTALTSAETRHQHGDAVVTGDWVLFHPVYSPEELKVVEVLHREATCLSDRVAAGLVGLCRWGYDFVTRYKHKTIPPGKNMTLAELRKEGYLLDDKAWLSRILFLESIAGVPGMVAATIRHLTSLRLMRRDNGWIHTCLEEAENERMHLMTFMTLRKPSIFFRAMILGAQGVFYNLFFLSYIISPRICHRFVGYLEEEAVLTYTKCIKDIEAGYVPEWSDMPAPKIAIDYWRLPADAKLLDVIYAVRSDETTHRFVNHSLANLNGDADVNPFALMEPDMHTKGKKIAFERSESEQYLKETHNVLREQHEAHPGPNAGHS
Sequence of rMpAOX incorporated into proteoliposomes (A8QJP8 entry or part of it): as above
Sequence of purified rMpAOX (A8QJP8 entry or part of it): as above

Nc1nc2c(ncn2[C@@H]2O[C@H](COP(=O)(O)O)[C@@H](O)[C@H]2O)c(=O)[nH]1 [GMP, 5′-GMP]
Maximum membrane-bound rMpAOX oxygen uptake (membrane-bound rMpAOX; 1 mM GMP): 0.67 µmol O2 min^−1 mg total protein^−1
Maximum membrane-bound rMpAOX oxygen uptake per mg AOX (membrane-bound rMpAOX; 1 mM GMP): 5 µmol O2 min^−1 mg AOX^−1
Increase of membrane-bound rMpAOX oxygen uptake (membrane-bound rMpAOX; 1 mM activator): 9.8 times
Fold-change in membrane-bound rMpAOX O2 uptake (membrane-bound rMpAOX; 1 mM each, single independent measurements (Fig1a)): 8.8788 and 10.5259 and 10.0722
Fractional velocity, % (membrane-bound rMpAOX; [activator] 0.025 mM (Fig1b)): 56.6% and 57.7%
Fractional velocity, % (membrane-bound rMpAOX; [activator] 0.075 mM (Fig1b)): 100.5% and 91.4%
Fractional velocity, % (membrane-bound rMpAOX; [activator] 0.175 mM (Fig1b)): 125.1% and 121.5%
Fractional velocity, % (membrane-bound rMpAOX; [activator] 0.375 mM (Fig1b)): 153.9% and 143.6%
Fractional velocity, % (membrane-bound rMpAOX; [activator] 0.625 mM (Fig1b)): 166.3% and 158.4%
Fractional velocity, % (membrane-bound rMpAOX; [activator] 1.125 mM (Fig1b)): 182.1% and 175.1%
Fractional velocity, % (membrane-bound rMpAOX; [activator] 2.125 mM (Fig1b)): 186.8% and 187.9%
Fractional velocity, % (membrane-bound rMpAOX; [activator] 4.125 mM (Fig1b)): 193.5% and 196.9%
Fractional velocity, % (membrane-bound rMpAOX; [activator] 6.625 mM (Fig1b)): 206.9% and 200.9%
pEC50 (membrane-bound rMpAOX; membrane-bound rMpAOX, 4-parameter sigmoid fit, read-out: EC50 of rMpAOX activation): 3.78
Effect on rMpAOX kinetic parameters KM and VMax (purified rMpAOX): did not alter
Sensitivity of rMpAOX to GMP [1]: not regained

O=C(Nc1cccc(Br)c1)c1cccc(F)c1 [N-(3-bromophenyl)-3-fluorobenzamide]
Effect in plants against WBD [2]: protective effect

CCCOC(=O)c1cc(O)c(O)c(O)c1 [n-propyl gallate]
Concentrations that inhibit M. perniciosa growth (M. perniciosa): millimolar concentrations
